Results taken from US20240228535A1 (priority 2022, published 2024).

These compounds were tested against SARS2 coronavirus 3CL protease (Severe acute respiratory syndrome coronavirus 2, UniProt P0DTD1) (assay: biochemical). Conditions: 5 nM enzyme, 30 min pre-incubation with compound, 15 μM peptide substrate, 4 h at room temperature; read-out: FRET Potency (nM); IC50 values in the SARS2 3CLPro FRET assay.
Work on `CNC(=O)C(=O)[C@H](C[C@@H]1C[C@@H](C)NC1=O)NC(=O)c1cc(Cl)c(Cl)cc1NC(=O)OC1CC1` [Example 170, cyclopropyl N-[4,5-dichloro-2-[[(1S)-3-(methylamino)-1-[[(3S,5R)-5-methyl-2-oxo-pyrrolidin-3-yl]methyl]-2,3-dioxo-propyl]carbamoyl]phenyl] carbamate] yielded an IC50 of 10.5 nM. `CNC(=O)C(=O)[C@H](C[C@@H]1C[C@@H](C)NC1=O)NC(=O)c1cc(Cl)ccc1NC(=O)OC1CC1(F)F` (stereo partly drawn) [Example 171, (2,2-difluorocyclopropyl) N-[4-chloro-2-[(1S)-3-(methylamino)-1-[[(3S,5R)-5-methyl-2-oxo-pyrrolidin-3-yl]methyl]-2,3-dioxo-propyl]carbamoyl]phenyl] carbamate] was tested, and the IC50 was 3.2 nM. `CNC(=O)C(=O)[C@H](C[C@@H]1C[C@@H](C)NC1=O)NC(=O)c1cc(Cl)ccc1NC(=O)OC1CC1(F)F` (stereo partly drawn) [Example 172, (2,2-difluorocyclopropyl) N-[4-chloro-2-[(1S)-3-(methylamino)-1-[[(3S,5R)-5-methyl-2-oxo-pyrrolidin-3-yl]methyl]-2,3-dioxo-propyl]carbamoyl]phenyl] carbamate] gave an IC50 of 3.7 nM. `CNC(=O)C(=O)[C@H](C[C@@H]1CCNC1=O)NC(=O)c1cc(Cl)ccc1NC(=O)OC1CC(F)(F)C1` [Example 173] gave an IC50 of 6.7 nM. Compound `CNC(=O)C(=O)[C@H](C[C@@H]1CCNC1=O)NC(=O)c1cc(Cl)ccc1NC(=O)OCc1ccccc1` [Example 174] has an IC50 of 6.5 nM. With `CNC(=O)C(=O)[C@H](C[C@@H]1CCNC1=O)NC(=O)c1cc(Cl)ccc1NC(=O)C1CC1C(F)(F)F` (some centres unmarked) [Example 175] the IC50 was 2.8 nM. With `CNC(=O)C(=O)[C@H](C[C@@H]1CCNC1=O)NC(=O)c1cc(Cl)ccc1NC(=O)C1CC1C(F)(F)F` (stereo partly drawn) [Example 176, 5-chloro-N-[(1S)-3-(methylamino)-2,3-dioxo-1-[[(3S)-2-oxopyrrolidin-3-yl]methyl]propyl]-2-[[2-(trifluoromethyl)cyclopropane-carbonyl]amino]benzamide] the IC50 was 2.5 nM. In the case of `C[C@@H]1C[C@@H](C[C@H](NC(=O)c2cc(Cl)ccc2NC(=O)C(F)(F)F)C(=O)C(=O)NC2CC2)C(=O)N1` [Example 177, 5-chloro-N-[(1S)-3-(cyclopropylamino)-1-[[(3S,5R)-5-methyl-2-oxo-pyrrolidin-3-yl]methyl]-2,3-dioxo-propyl]-2-[(2,2,2-trifluoroacetyl)amino] benzamide], the IC50 is reported as 10.9 nM. Compound `CNC(=O)C(=O)[C@H](C[C@@H]1C[C@@H](C)NC1=O)NC(=O)c1cc(Cl)ccc1NC(=O)CCC(F)(F)F` [Example 178, 5-chloro-N-[(1S)-3-(methylamino)-1-[[(3S,5R)-5-methyl-2-oxo-pyrrolidin-3-yl]methyl]-2,3-dioxo-propyl]-2-(4,4,4-trifluorobutanoylamino) benzamide] has an IC50 of 7 nM. `CNC(=O)C(=O)[C@H](C[C@@H]1CCNC1=O)NC(=O)c1cc(Cl)ccc1NC(=O)C(C)c1cscn1` (stereo partly drawn) [Example 179, 5-chloro-N-[(1S)-3-(methylamino)-2,3-dioxo-1-[[(3S)-2-oxopyrrolidin-3-yl]methyl]propyl]-2-(2-thiazol-4-ylpropanoylamino)benzamide] was tested, and the IC50 was 2.5 nM. For `CNC(=O)C(=O)[C@H](C[C@@H]1CCNC1=O)NC(=O)c1cc(Cl)ccc1NC(=O)OC(C)C(F)(F)F` (some centres unmarked) [Example 180], the IC50 was 4.5 nM. `CNC(=O)C(=O)[C@H](C[C@@H]1C[C@@H](C)NC1=O)NC(=O)c1cc(Cl)ccc1NC(=O)OCC(F)(F)F` [Example 181, 2,2,2-trifluoroethyl N-[4-chloro-2-[[(1S)-3-(methylamino)-1-[[(3S,5R)-5-methyl-2-oxo-pyrrolidin-3-yl]methyl]-2,3-dioxo-propyl]carbamoyl]phenyl] carbamate] showed an IC50 of 7.2 nM. Compound `CNC(=O)C(=O)[C@H](C[C@@H]1C[C@@H](C)NC1=O)NC(=O)c1cc(Cl)ccc1NC(=O)[C@@H]1CN(C)C(=O)O1` [Example 182, (5S)-N-[4-chloro-2-[[(1S)-3-(methylamino)-1-[[(3S,5R)-5-methyl-2-oxo-pyrrolidin-3-yl]methyl]-2,3-dioxo-propyl]carbamoyl]phenyl]-3-methyl-2-oxo-oxazolidine-5-carboxamide] has an IC50 of 6.7 nM. `CNC(=O)C(=O)[C@H](C[C@@H]1C[C@@H](C)NC1=O)NC(=O)c1cc(Cl)ccc1NC(=O)c1cncc(C#N)c1` [Example 183] gave an IC50 of 10.1 nM. `CNC(=O)C(=O)[C@H](C[C@@H]1C[C@@H](C)NC1=O)NC(=O)c1cc(Cl)ccc1NC(=O)C1CCCC1(F)F` (stereo partly drawn) [Example 184, 5-chloro-2-[(2,2-difluorocyclopentanecarbonyl)amino]-N-[(1S)-3-(methylamino)-1-[[(3S,5R)-5-methyl-2-oxo-pyrrolidin-3-yl]methyl]-2,3-dioxo-propyl]benzamide] was tested, and the IC50 was 13.5 nM. `CNC(=O)C(=O)[C@H](C[C@@H]1C[C@@H](C)NC1=O)NC(=O)c1cc(Cl)ccc1NC(=O)C1CCCC1(F)F` (stereo partly drawn) [Example 185, 5-chloro-2-[(2,2-difluorocyclopentanecarbonyl)amino]-N-[(1S)-3-(methylamino)-1-[[(3S,5R)-5-methyl-2-oxo-pyrrolidin-3-yl]methyl]-2,3-dioxo-propyl]benzamide] was tested, and the IC50 was 9 nM. For `CNC(=O)C(=O)[C@H](C[C@@H]1C[C@@H](C)NC1=O)NC(=O)c1cc(Cl)ccc1NC(=O)OCC1CC1(F)F` (stereo partly drawn) [Example 186, (2,2-difluorocyclopropyl)methyl N-[4-chloro-2-[[(1S)-3-(methylamino)-1-[[(3S,5R)-5-methyl-2-oxo-pyrrolidin-3-yl]methyl]-2,3-dioxo-propyl]carbamoyl]phenyl] carbamate], the IC50 was 2.5 nM. Work on `CNC(=O)C(=O)[C@H](C[C@@H]1C[C@@H](C)NC1=O)NC(=O)c1cc(Cl)ccc1NC(=O)OCC1CC1(F)F` (stereo partly drawn) [Example 187, (2,2-difluorocyclopropyl)methyl N-[4-chloro-2-[(1S)-3-(methylamino)-1-[[(3S,5R)-5-methyl-2-oxo-pyrrolidin-3-yl]methyl]-2,3-dioxo-propyl]carbamoyl]phenyl] carbamate] yielded an IC50 of 2.5 nM. `CNC(=O)C(=O)[C@H](C[C@@H]1C[C@@H](C)NC1=O)NC(=O)c1cc(Cl)ccc1NC(=O)OC1CC(F)(F)C1` [Example 188, (3,3-difluorocyclobutyl) N-[4-chloro-2-[(1S)-3-(methylamino)-1-[[(3S,5R)-5-methyl-2-oxo-pyrrolidin-3-yl]methyl]-2,3-dioxo-propyl]carbamoyl]phenyl] carbamate] was tested, and the IC50 was 7.2 nM. `CNC(=O)C(=O)[C@H](C[C@@H]1C[C@@H](C)NC1=O)NC(=O)c1cc(Cl)ccc1NC(=O)C1CC1C(F)(F)F` (stereo partly drawn) [Example 189, 5-chloro-N-[(1S)-3-(methylamino)-1-[[(3S,5R)-5-methyl-2-oxo-pyrrolidin-3-yl]methyl]-2,3-dioxo-propyl]-2-[[2-(trifluoromethyl)cyclopropane-carbonyl]amino]benzamide] gave an IC50 of 3.5 nM. For `CNC(=O)C(=O)[C@H](C[C@@H]1C[C@@H](C)NC1=O)NC(=O)c1cc(Cl)ccc1NC(=O)C1CC1C(F)(F)F` (stereo partly drawn) [Example 190, 5-chloro-N-[(1S)-3-(methylamino)-1-[[(3S,5R)-5-methyl-2-oxo-pyrrolidin-3-yl]methyl]-2,3-dioxo-propyl]-2-[[2-(trifluoromethyl)cyclopropane-carbonyl]amino]benzamide], the IC50 was 3.1 nM. In the case of `O=C(Nc1ccc(Cl)cc1C(=O)N[C@@H](C[C@@H]1CCNC1=O)C(=O)C(=O)NC1CC1)OCC(F)(F)F` [Example 191, 2,2,2-trifluoroethyl N-[4-chloro-2-[[(1S)-3-(cyclopropylamino)-2,3-dioxo-1-[[(3S)-2-oxopyrrolidin-3-yl]methyl]propyl]carbamoyl]phenyl]carbamate], the IC50 is reported as 16.1 nM. `C[C@@H]1C[C@@H](C[C@H](NC(=O)c2cc(Cl)ccc2NC(=O)C2CCOCC2)C(=O)C(=O)NC2CC2)C(=O)N1` [Example 192, N-[4-chloro-2-[[(1S)-3-(cyclopropylamino)-1-[[(3S,5R)-5-methyl-2-oxo-pyrrolidin-3-yl]methyl]-2,3-dioxo-propyl]carbamoyl]phenyl]tetra-hydropyran-4-carboxamide] gave an IC50 of 10.3 nM. With `C[C@@H]1C[C@@H](C[C@H](NC(=O)c2cc(Cl)ccc2NC(=O)[C@@H]2CNC(=O)O2)C(=O)C(=O)NC2CC2)C(=O)N1` [Example 193, (5S)-N-[4-chloro-2-[[(1S)-3-(cyclopropylamino)-1-[[(3S,5R)-5-methyl-2-oxo-pyrrolidin-3-yl]methyl]-2,3-dioxo-propyl]carbamoyl]phenyl]-2-oxo-oxazolidine-5-carboxamide] the IC50 was 5.2 nM. `C[C@@H]1C[C@@H](C[C@H](NC(=O)c2cc(Cl)ccc2NC(=O)N2CCOCC2)C(=O)C(=O)NC2CC2)C(=O)N1` [Example 194, N-[4-chloro-2-[[(1S)-3-(cyclopropylamino)-1-[[(3S,5R)-5-methyl-2-oxo-pyrrolidin-3-yl]methyl]-2,3-dioxo-propyl]carbamoyl]phenyl] morpholine-4-carboxamide] showed an IC50 of 6.8 nM. `CNC(=O)C(=O)[C@H](C[C@@H]1C[C@@H](C)NC1=O)NC(=O)c1cc(Cl)ccc1NC(=O)C(C)c1cscn1` (stereo partly drawn) [Example 195, 5-chloro-N-[(1S)-3-(methylamino)-1-[[(3S,5R)-5-methyl-2-oxo-pyrrolidin-3-yl]methyl]-2,3-dioxo-propyl]-2-(2-thiazol-4-ylpropanoylamino)benzamide] gave an IC50 of 3.1 nM. In the case of `CNC(=O)C(=O)[C@H](C[C@@H]1CCNC1=O)NC(=O)c1cc(F)ccc1NC(=O)c1ccnc(C(F)(F)F)c1` [Example 196, N-[4-fluoro-2-[[(1S)-3-(methylamino)-2,3-dioxo-1-[[(3S)-2-oxopyrrolidin-3-yl]methyl]propyl]carbamoyl]phenyl]-2-(trifluoromethyl)pyridine-4-carboxamide], the IC50 is reported as 7.6 nM. Work on `CNC(=O)C(=O)[C@H](C[C@@H]1C[C@@H](C)NC1=O)NC(=O)c1cc(Cl)ccc1NC(=O)C1CCC(F)(F)CC1` [Example 197] yielded an IC50 of 9.4 nM. In the case of `CNC(=O)C(=O)[C@H](C[C@@H]1C[C@@H](C)NC1=O)NC(=O)c1cc(Cl)ccc1NC(=O)OC1CCC(F)(F)C1` (stereo partly drawn) [Example 200, (3,3-difluorocyclopentyl) N-[4-chloro-2-[[(1S)-3-(methylamino)-1-[[(3S,5R)-5-methyl-2-oxo-pyrrolidin-3-yl]methyl]-2,3-dioxo-propyl]carbamoyl]phenyl] carbamate], the IC50 is reported as 4.6 nM.
